Data as given in ChEMBL document CHEMBL6153094, “Rationally designed highly amphipathic antimicrobial peptides demonstrating superior bacterial selectivity relative to the corresponding α-helix peptide” (Eur J Med Chem, 2025).
Converted amounts (≈) assume the structure as drawn. The source made the active and inactive calls. The calls are words filed in the database; no cut-off is given here.

Experiments:
Acinetobacter baumannii = assay: Antimicrobial activity against Acinetobacter baumannii ATCC 19606 assessed as inhibition of visible bacterial growth incubated for 18 hrs by broth microdilution method; format: functional
Escherichia coli = assay: Antimicrobial activity against Escherichia coli ATCC 25922 assessed as inhibition of visible bacterial growth incubated for 18 hrs by broth microdilution method; format: functional
Klebsiella pneumoniae = assay: Antimicrobial activity against Klebsiella pneumoniae ATCC 700603 assessed as inhibition of visible bacterial growth incubated for 18 hrs by broth microdilution method; format: functional
Pseudomonas aeruginosa = assay: Antimicrobial activity against Pseudomonas aeruginosa ATCC 27853 assessed as inhibition of visible bacterial growth incubated for 18 hrs by broth microdilution method; format: functional
Bacillus subtilis = assay: Antimicrobial activity against Bacillus subtilis ATCC 23857 assessed as inhibition of visible bacterial growth incubated for 18 hrs by broth microdilution method; format: functional
[1] = test system: Staphylococcus epidermidis; assay: Antimicrobial activity against Staphylococcus epidermidis ATCC 12228 assessed as inhibition of visible bacterial growth incubated for 18 hrs by broth-dilution method; format: functional
Staphylococcus aureus [2] = assay: Antimicrobial activity against Staphylococcus aureus ATCC 25923 assessed as inhibition of visible bacterial growth incubated for 18 hrs by broth-dilution method; format: functional
Enterococcus faecalis = assay: Antimicrobial activity against Enterococcus faecalis ATCC 29212 assessed as inhibition of visible bacterial growth incubated for 18 hrs by broth-dilution method; format: functional
Staphylococcus aureus [3] = assay: Antimicrobial activity against methicillin-drug resistant Staphylococcus aureus ATCC 33591 assessed as concentration required to eliminate 90% bacteria incubated for 18 hrs by broth-microdilution method; format: functional
Staphylococcus aureus [4] = assay: Antibacterial activity against methicillin-resistant Staphylococcus aureus ATCC 33591 infected in male Balb/c mouse model of full thickness skin wound assessed as reduction in bacterial load in skin at 1 mg/ml pre-infected with bacteria for 1 hrs followed by compound administration at 1,12 and 36 hrs post infection and measured 60 hrs post infection by agar plate method; format: functional, organism-based; conditions: time 59.0 hrs
Staphylococcus aureus [5] = assay: Antibacterial activity against methicillin-resistant Staphylococcus aureus ATCC 33591 infected in male Balb/c mouse model of full thickness skin wound assessed as reduction in bacteria in skin wound at 1 mg/ml pre-infected with bacteria for 1 hrs followed by compound administration at 1,12 and 36 hrs post infection and measured after 10 days by photographic analysis; format: functional, organism-based; conditions: time 10.0 day
Staphylococcus aureus [6] = assay: (§1) Antibacterial activity against methicillin-resistant Staphylococcus aureus ATCC 33591 infected in male Balb/c mouse model of full thickness skin wound assessed as reduction in number of inflammatory cells in skin at 1 mg/ml pre-infected with bacteria for 1 hrs followed by compound administration at 1,12 and 36 hrs post infection and measured after 10 days by H and E staining based analysis; format: functional, organism-based; conditions: time 10.0 day
Staphylococcus aureus [7] = assay: as §1, with “decrease” for “reduction”, “cell necrosis” for “number of inflammatory cells”; format: functional, organism-based; conditions: time 10.0 day
[8] = Hemolytic activity in mouse red blood cells assessed as hemolysis incubated for 1 hrs by absorbance based assay; format: toxicity, cell-based; conditions: erythrocyte

Row | Molecule | MIC (Acinetobacter baumannii) [µM] | MIC (Escherichia coli) [µM] | MIC (Klebsiella pneumoniae) [µM] | MIC (Pseudomonas aeruginosa) [µM] | MIC (Bacillus subtilis) [µM] | MIC [1] [µM] | MIC (Staphylococcus aureus [2]) [µM] | MIC (Enterococcus faecalis) [µM] | EC90 (Staphylococcus aureus [3]) [nM] | Activity (Staphylococcus aureus [4]) | Activity (Staphylococcus aureus [5]) | Activity (Staphylococcus aureus [6]) | Activity (Staphylococcus aureus [7]) | HC10 [8] [µM] | Activity [8]
1 | CO[C@H]1/C=C/O[C@@]2(C)Oc3c(C)c(O)c4c(O)c(c(/C=N/N5CCN(C)CC5)c(O)c4c3C2=O)NC(=O)/C(C)=C\C=C\[C@H](C)[C@H](O)[C@@H](C)[C@@H](O)[C@@H](C)[C@H](OC(C)=O)[C@@H]1C [RIFAMPIN] | 1 (≈ 0.823 µg/mL) | 8 (≈ 6.58 µg/mL) | 32 (≈ 26.3 µg/mL) | 32 (≈ 26.3 µg/mL) | < 1 | < 1 | < 1 | < 1 |  |  |  |  |  |  | 
2 | CN[C@H](CC(C)C)C(=O)N[C@H]1C(=O)N[C@@H](CC(N)=O)C(=O)N[C@H]2C(=O)N[C@H]3C(=O)N[C@H](C(=O)N[C@H](C(=O)O)c4cc(O)cc(O)c4-c4cc3ccc4O)[C@H](O)c3ccc(c(Cl)c3)Oc3cc2cc(c3O[C@@H]2O[C@H](CO)[C@@H](O)[C@H](O)[C@H]2O[C@H]2C[C@](C)(N)[C@H](O)[C@H](C)O2)Oc2ccc(cc2Cl)[C@H]1O [VANCOMYCIN] | 32 (≈ 46.4 µg/mL) | 128 (≈ 186 µg/mL) | 128 (≈ 186 µg/mL) | > 128 | < 1 | < 1 | < 1 | 2 (≈ 2.9 µg/mL) | 289 | Active | Active; Obvious Facilitation Of Wound Healing Not Observed | Active | Active |  | 
3 | H-RRWFRRWERWFE-NH2 | 32 | 16 | 16 | 16 | 4 | 8 | 32 | 128 |  |  |  |  |  | > 256 | 
4 | H-RRWFRRWFRRWF-NH2 | 16 | 16 | 16 | 16 | 8 | 8 | 8 | 16 |  |  |  |  |  | 16.44 | 
5 | H-RRWFRRWFRWFF-NH2 | 32 | 32 | 32 | 16 | 2 | 4 | 32 | 32 |  |  |  |  |  |  | Toxic
6 | H-RRWFRRWGRWFG-NH2 [listing 1 of 2 here] |  |  |  |  |  |  |  |  |  |  |  |  |  | > 256 | 
7 | H-RRWFRRWGRWFG-NH2 [listing 2 of 2 here] | 32 | 8 | 8 | 2 | 2 | 2 | 16 | 32 |  |  |  |  |  |  | 
8 | H-RRWFRRWIRWFI-NH2 | 16 | 16 | 16 | 16 | 1 | 4 | 16 | 16 |  |  |  |  |  | 2.39 | 
9 | H-RRWFRRWKRWFK-NH2 | 16 | 8 | 4 | 2 | 1 | 2 | 4 | 32 |  |  |  |  |  | > 256 | 
10 | H-RRWFRRWLRWFL-NH2 | 32 | 16 | 32 | 16 | 2 | 2 | 16 | 32 |  |  |  |  |  |  | Toxic
11 | H-RRWFRRWTRWFT-NH2 | 8 | 8 | 8 | 4 | 1 | 2 | 8 | 16 |  |  |  |  |  | > 256 | 
12 | H-RRWFRRWWRWFW-NH2 | 32 | 32 | 64 | 32 | 4 | 4 | 32 | 32 |  |  |  |  |  |  | Toxic
